Results taken from US20230097157A1, “Bicyclic Pyridin-2-one and pyrimidin-4-one Derivatives Useful As a Factor XIa Inhibitors” (Janssen Pharmaceutica NV, priority 2021, published 2023).
Where two headings read alike, the source gives them in different places.

Tests used:
human plasma kallikrein = human plasma kallikrein (Homo sapiens, UniProt P03952); experiment: Kallikrein inhibition assay (FLINT) utilizing a quenched AMC peptide substrate Z-Gly-Pro-Arg-AMC; format: biochemical; settings: kinetic (KIN) reads, read-out: Kallikrein KIN Inh IC50
In short: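 Human plasma kallikrein (2 nM final) pre-incubated 30 min with compound (11-point 3-fold series, top 1 μM, 2% DMSO), then 50 μM Z-Gly-Pro-Arg-AMC added. Buffer 50 mM Tris pH 7.5, 100 mM NaCl, 5 mM CaCl2, BSA, CHAPS. AMC fluorescence (340/440 nm) read kinetically over 30 min at room temperature, IC50 by 4-parameter logistic fit.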

Factor XIa = Factor XIa (Homo sapiens, UniProt P03951); experiment: Factor XIa inhibition assay (FLINT) utilizing a fluorophore-quencher pair peptide substrate 5Fam-[…]-K5Tamra; format: biochemical; settings: kinetic (KIN) reads, read-out: FXIa KIN Inh IC50
In short: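 FXIa was preincubated with compound for 30 min at room temperature in Tris pH 7.5 buffer containing CaCl2, BSA and CHAPS, then reacted with 15 μM quenched 5Fam/Tamra peptide substrate. Fluorescence (485/520 nm) was read kinetically every 5 min for 30 min.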

Sequence of human plasma kallikrein (P03952 391-638 limits assumed): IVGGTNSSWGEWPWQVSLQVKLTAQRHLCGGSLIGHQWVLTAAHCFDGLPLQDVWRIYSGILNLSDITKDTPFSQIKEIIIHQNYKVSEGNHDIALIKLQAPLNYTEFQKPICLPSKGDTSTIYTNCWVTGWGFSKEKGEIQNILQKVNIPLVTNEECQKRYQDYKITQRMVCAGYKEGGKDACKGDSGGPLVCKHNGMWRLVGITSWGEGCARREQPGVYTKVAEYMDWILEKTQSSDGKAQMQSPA
Sequence of human plasma kallikrein (P03952 20-390 partner limits assumed): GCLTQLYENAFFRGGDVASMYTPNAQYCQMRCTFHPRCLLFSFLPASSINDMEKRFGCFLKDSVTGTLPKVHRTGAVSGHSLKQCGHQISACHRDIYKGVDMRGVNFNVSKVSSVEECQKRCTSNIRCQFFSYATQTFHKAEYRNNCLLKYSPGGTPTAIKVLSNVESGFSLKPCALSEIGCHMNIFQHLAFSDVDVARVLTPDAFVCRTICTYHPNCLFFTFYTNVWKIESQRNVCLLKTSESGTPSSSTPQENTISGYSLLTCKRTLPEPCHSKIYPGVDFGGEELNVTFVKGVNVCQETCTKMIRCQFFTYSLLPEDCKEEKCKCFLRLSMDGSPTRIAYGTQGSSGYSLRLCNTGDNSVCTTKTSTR
Sequence of Factor XIa (P03951 388-625 limits assumed): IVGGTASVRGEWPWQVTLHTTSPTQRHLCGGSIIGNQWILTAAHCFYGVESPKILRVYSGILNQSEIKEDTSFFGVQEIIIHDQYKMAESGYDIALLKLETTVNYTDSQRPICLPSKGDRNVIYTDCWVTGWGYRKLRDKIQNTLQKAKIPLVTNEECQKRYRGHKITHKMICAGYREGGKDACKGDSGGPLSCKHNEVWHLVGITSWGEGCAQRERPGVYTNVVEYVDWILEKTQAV
Sequence of Factor XIa (P03951 19-387 partner limits assumed): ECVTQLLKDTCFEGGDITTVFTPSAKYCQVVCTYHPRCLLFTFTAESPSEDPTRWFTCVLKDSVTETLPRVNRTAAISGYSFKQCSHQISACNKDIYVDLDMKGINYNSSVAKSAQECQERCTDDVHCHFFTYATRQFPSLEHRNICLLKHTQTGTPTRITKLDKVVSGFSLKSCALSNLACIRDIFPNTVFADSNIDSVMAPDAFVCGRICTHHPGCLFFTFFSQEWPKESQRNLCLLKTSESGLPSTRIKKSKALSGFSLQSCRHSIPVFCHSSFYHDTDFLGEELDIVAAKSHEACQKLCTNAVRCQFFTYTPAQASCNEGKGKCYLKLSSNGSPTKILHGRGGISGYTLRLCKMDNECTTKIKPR

| SMILES | IC50 (human plasma kallikrein; values in nM) [nM] | IC50 (Factor XIa; values in nM) [nM] | IC50 (human plasma kallikrein; unit μM) [nM] | IC50 (Factor XIa; unit μM) [nM] |
| --- | --- | --- | --- | --- |
| C[C@H]1C[C@@H](c2ncc(-c3ccc(N)nn3)[nH]2)n2c1cc(-c1c(-n3cnnn3)ccc(Cl)c1F)cc2=O (relative stereo) [Example 10, (1 S*,3S*)-3-(5-(6-Aminopyridazin-3-yl)-1H-imidazol-2-yl)-7-(3-chloro-2-fluoro-6-(1H-tetrazol-1-yl)phenyl)-1-methyl-2,3-dihydroindolizin-5(1H)-one] | 345 | 18.3 |  |  |
| C[C@H]1C[C@H](c2ncc(-c3ccnc(N)c3F)[nH]2)n2c1nc(-c1c(-n3cnnn3)ccc(Cl)c1F)cc2=O (relative stereo) [Example 87, (6R*,8S*)-6-(5-(2-amino-3-fluoropyridin-4-yl)-1H-imidazol-2-yl)-2-(3-chloro-2-fluoro-6-(1H-tetrazol-1-yl)phenyl)-8-methyl-7,8-dihydropyrrolo[1,2-a]pyrimidin-4(6H)-one] | 27.7 | 1.5 |  |  |
| C[C@H]1C[C@@H](c2ncc(-c3ccnc(N)n3)[nH]2)n2c1cc(-c1c(-n3cnnn3)ccc(Cl)c1F)cc2=O [Example 20, (1S,3S)-3-(5-(2-Aminopyrimidin-4-yl)-1H-imidazol-2-yl)-7-(3-chloro-2-fluoro-6-(1H-tetrazol-1-yl)phenyl)-1-methyl-2,3-dihydroindolizin-5(1H)-one] | 295 | 19.7 |  |  |
| C[C@@H]1C[C@@H](c2ncc(-c3ccc(N)nc3F)[nH]2)n2c1cc(-c1c(-n3cnnn3)ccc(Cl)c1F)cc2=O [Example 66, (1R,3S)-3-(5-(6-Amino-2-fluoropyridin-3-yl)-1H-imidazol-2-yl)-7-(3-chloro-2-fluoro-6-(1H-tetrazol-1-yl)phenyl)-1-methyl-2,3-dihydroindolizin-5(1H)-one] | 3.6 | 0.4 |  |  |
| C[C@@H]1C[C@H](c2ncc(-c3ccc(N)nc3F)[nH]2)n2c1cc(-c1c(-n3cnnn3)ccc(Cl)c1F)cc2=O (stereo in doubt) [Example 56, (1*R,3*R)-3-(5-(6-Amino-2-fluoropyridin-3-yl)-1H-imidazol-2-yl)-7-(3-chloro-2-fluoro-6-(1H-tetrazol-1-yl)phenyl)-1-methyl-2,3-dihydroindolizin-5(1H)-one] |  |  | > 10000 | 1200 |
| C[C@@H]1C[C@H](c2ncc(-c3ccc4nn(C)cc4c3)[nH]2)n2c1cc(-c1c(-n3cnnn3)ccc(Cl)c1F)cc2=O (stereo in doubt) [Example 47, (1*R,3*R)-7-(3-Chloro-2-fluoro-6-(1H-tetrazol-1-yl)phenyl)-1-methyl-3-(5-(2-methyl-2H-indazol-5-yl)-1H-imidazol-2-yl)-2,3-dihydroindolizin-5(1H)-one] | 21.7 | 23.7 |  |  |
| C[C@@H]1C[C@H](c2ncc(-c3ccc4c(c3)CC(=O)N4)[nH]2)n2c1nc(-c1c(-n3cnnn3)ccc(Cl)c1F)cc2=O (stereo in doubt) [Example 112, (6*R,8*R)-2-(3-Chloro-2-fluoro-6-(1H-tetrazol-1-yl)phenyl)-8-methyl-6-(5-(2-oxoindolin-5-yl)-1H-imidazol-2-yl)-7,8-dihydropyrrolo[1,2-a]pyrimidin-4(6H)-one] | 7.8 | 1.6 |  |  |
| C[C@@H]1C[C@H](c2ncc(-c3ccc(NC(=O)C4CC4)nc3)[nH]2)n2c1nc(-c1c(-n3cnnn3)ccc(Cl)c1F)cc2=O (stereo in doubt) [Example 120, N-(5-(2-((6*R,8*R)-2-(3-Chloro-2-fluoro-6-(1H-tetrazol-1-yl)phenyl)-8-methyl-4-oxo-4,6,7,8-tetrahydropyrrolo[1,2-a]pyrimidin-6-yl)-1H-imidazol-5-yl)pyridin-2-yl)cyclopropanecarboxamide] | 11.2 | 12.8 |  |  |
| C[C@H]1C[C@@H](c2ncc(-c3ccc(NS(C)(=O)=O)cc3)[nH]2)n2c1cc(-c1c(-n3cnnn3)ccc(Cl)c1F)cc2=O [Example 11, N-(4-(2-((1S,3S)-7-(3-chloro-2-fluoro-6-(1H-tetrazol-1-yl)phenyl)-1-methyl-5-oxo-1,2,3,5-tetrahydroindolizin-3-yl)-1H-imidazol-5-yl)phenyl)methanesulfonamide] | 11.4 | 2.2 |  |  |
| C[C@@H]1CC(c2ncc(-c3cnc(N)c(F)c3)[nH]2)n2c1cc(-c1c(-n3cnnn3)ccc(Cl)c1F)cc2=O (stereo in doubt) [Example 60, (1*R)-3-(5-(6-Amino-5-fluoropyridin-3-yl)-1H-imidazol-2-yl)-7-(3-chloro-2-fluoro-6-(1H-tetrazol-1-yl)phenyl)-1-methyl-2,3-dihydroindolizin-5(1H)-one] | 185 | 47.8 |  |  |
| Cc1nc(N)ccc1-c1cnc([C@@H]2C[C@@H](C)c3cc(-c4c(-n5cnnn5)ccc(Cl)c4F)cc(=O)n32)[nH]1 [Example 50, (1R,3S)-3-(5-(6-Amino-2-methylpyridin-3-yl)-1H-imidazol-2-yl)-7-(3-chloro-2-fluoro-6-(1H-tetrazol-1-yl)phenyl)-1-methyl-2,3-dihydroindolizin-5(1H)-one] | 16 | 1.4 |  |  |
| C[C@H]1C[C@@H](c2ncc(-c3ccc(N)nc3F)[nH]2)n2c1cc(-c1c(-n3cnnn3)ccc(Cl)c1F)cc2=O [Example 67, (1S,3S)-3-(5-(6-Amino-2-fluoropyridin-3-yl)-1H-imidazol-2-yl)-7-(3-chloro-2-fluoro-6-(1H-tetrazol-1-yl)phenyl)-1-methyl-2,3-dihydroindolizin-5(1H)-one] | 20.6 | 0.4 |  |  |
| COc1cc(-c2cnc([C@@H]3C[C@@H](C)c4nc(-c5c(-n6cnnn6)ccc(Cl)c5F)cc(=O)n43)[nH]2)ccn1 (stereo in doubt) [Example 98, (6*S,8*R)-2-(3-Chloro-2-fluoro-6-(1H-tetrazol-1-yl)phenyl)-6-(5-(2-methoxypyridin-4-yl)-1H-imidazol-2-yl)-8-methyl-7,8-dihydropyrrolo[1,2-a]pyrimidin-4(6H)-one] | 135 | 143 |  |  |
| CNC(=O)c1cc(-c2cnc([C@@H]3C[C@H](C)c4cc(-c5c(-n6cnnn6)ccc(Cl)c5F)cc(=O)n43)[nH]2)ccn1 [Example 13, 4-(2-((1S,3S)-7-(3-Chloro-2-fluoro-6-(1H-tetrazol-1-yl)phenyl)-1-methyl-5-oxo-1,2,3,5-tetrahydroindolizin-3-yl)-1H-imidazol-5-yl)-N-methylpicolinamide] | 36.9 | 12.7 |  |  |
| C[C@H]1C[C@@H](c2ncc(-c3cn[nH]c3)[nH]2)n2c1nc(-c1c(-n3cnnn3)ccc(Cl)c1F)cc2=O (stereo in doubt) [Example 107, (6*S,8*S)-6-(5-(1H-Pyrazol-4-yl)-1H-imidazol-2-yl)-2-(3-chloro-2-fluoro-6-(1H-tetrazol-1-yl)phenyl)-8-methyl-7,8-dihydropyrrolo[1,2-a]pyrimidin-4(6H)-one] | 95.9 | 2.4 |  |  |
| C[C@H]1CC(c2ncc(-c3cnnn3C)[nH]2)n2c1nc(-c1c(-n3cnnn3)ccc(Cl)c1F)cc2=O (stereo in doubt) [Example 136, (6*S,8*S)-2-(3-Chloro-2-fluoro-6-(1H-tetrazol-1-yl)phenyl)-8-methyl-6-(5-(1-methyl-1H-1,2,3-triazol-5-yl)-1H-imidazol-2-yl)-7,8-dihydropyrrolo[1,2-a]pyrimidin-4(6H)-one] |  | 566 | > 10000 |  |
| C[C@@H]1C[C@H](c2ncc(-c3cnns3)[nH]2)n2c1nc(-c1c(-n3cnnn3)ccc(Cl)c1F)cc2=O (relative stereo) [Example 105, (6*R,8*R)-6-(5-(1,2,3-Thiadiazol-5-yl)-1H-imidazol-2-yl)-2-(3-chloro-2-fluoro-6-(1H-tetrazol-1-yl)phenyl)-8-methyl-7,8-dihydropyrrolo[1,2-a]pyrimidin-4(6H)-one] |  |  | > 10000 | > 10000 |
| Nc1ccc(-c2cnc(C3CCCc4cc(-c5c(-n6cnnn6)ccc(Cl)c5F)cc(=O)n43)[nH]2)c(F)n1 (single isomer, unassigned) [Cmpd (III), (*S)-6-(5-(6-amino-2-fluoropyridin-3-yl)-1H-imidazol-2-yl)-2-(3-chloro-2-fluoro-6-(1H-tetrazol-1-yl)phenyl)-6,7,8,9-tetrahydro-4H-quinolizin-4-one] | 100 | 1.2 |  |  |
| C[C@H]1CC(c2nc(F)c(-c3ccc(N)nc3)[nH]2)n2c1cc(-c1c(-n3cnnn3)ccc(Cl)c1F)cc2=O (stereo in doubt) [Example 40, (1*S,3*S)-3-(5-(6-Aminopyridin-3-yl)-4-fluoro-1H-imidazol-2-yl)-7-(3-chloro-2-fluoro-6-(1H-tetrazol-1-yl)phenyl)-1-methyl-2,3-dihydroindolizin-5(1H)-one] |  | 286 | 6400 |  |
| Nc1ccc(-c2cnc([C@H]3CC4(CC4)c4nc(-c5c(-n6cnnn6)ccc(Cl)c5F)cc(=O)n43)[nH]2)c(F)n1 [Example 133, (R)-6′-(5-(6-Amino-2-fluoropyridin-3-yl)-1H-imidazol-2-yl)-2′-(3-chloro-2-fluoro-6-(1H-tetrazol-1-yl)phenyl)-6′,7′-dihydro-4′H-spiro[cyclopropane-1,8′-pyrrolo[1,2-a]pyrimidin]-4′-one] |  | 231 | 4000 |  |
| Cc1nc(N)cnc1-c1cnc([C@@H]2CC(C)c3nc(-c4c(-n5cnnn5)ccc(Cl)c4F)cc(=O)n32)[nH]1 (stereo partly drawn) [Example 95, (6S)-6-(5-(5-Amino-3-methylpyrazin-2-yl)-1H-imidazol-2-yl)-2-(3-chloro-2-fluoro-6-(1H-tetrazol-1-yl)phenyl)-8-methyl-7,8-dihydropyrrolo[1,2-a]pyrimidin-4(6H)-one] | 71.7 | 5.3 |  |  |
